molecular target: T1, DNA-PK phosphorylation at Serine 2056 (Homo sapiens, UniProt P78527); assay: Cellular Assay for Inhibition of DNA-PK Phosphorylation at Serine 2056 (FaDu cells, neocarzinostatin, sandwich ELISA); format: cell-based; settings: Table 3
T1 construct: host or cells: FaDu
Procedure: FaDu cells were purchased from ATCC and maintained in MEM alpha medium (Life Technologies, cat. no. 12561) supplemented with 10% fetal bovine serum, and 1% GlutaMAX at 37° C. supplemented with 5% CO2. 50,000 cells were seeded to each well of a 96-well cell culture plate in 50 μL of culture medium and incubated for 16-24 hours. Three-fold serially diluted compounds were prepared in DMSO. Culture media was used to prepare compound treatments to 0.3% DMSO (dimethyl sulphoxide) content. Compound treatments were added to the cells for 1 hour prior incubation, followed by the addition of neocarzinostatin in fresh culture medium to 1 μg/mL final concentration for an additional 2 hours incubation to induce DNA DSBs (double-strand breaks). DMSO controls were incubated with fresh culture medium alone for the additional two hours incubation. The cells were then lysed and frozen at −20° C. Cell lysates were thawed on wet ice and protein concentrations quantified by BCA Protein Assay (Thermo # 23225). Lysis buffer was used to normalize lysates by protein content and all lysates were then investigated by sandwich ELISA by means of DNA-PK-specific antibodies (Abcam ab44815: total DNA-PK; ab124918: phosphoserine-2056 DNA-PK) in sandwich ELISA format on the MSD S600MM platform (MesoScale Discovery). % inhibition was calculated for all data points: =1−(DATA_PT−AVERAGE(DMSO controls))/(AVERAGE(NCS controls)−AVERAGE(DMSO controls)). Logarithm of the molar concentration of compound was plotted against percent inhibition to calculate IC50 values, with curve fit settings for data fit to log(inhibitor) vs. normalized response—Variable slope using curve fit software (GraphPad Prism).

`Cc1ncccc1N[C@H]1CC[C@@H](Oc2nc(N3CCOCC3)cc3ncc(NS(C)(=O)=O)cc23)CC1` [LFA1015, N-[5-[4-[(2-methyl-3-pyridyl)amino]cyclohexoxy]-7-morpholino-1,6-naphthyridin-3-yl]methanesulfonamide] and `CS(=O)(=O)Nc1cnc2cc(N3CCOCC3)nc(O[C@H]3CC[C@@H](Nc4ccc(C(F)(F)F)cn4)CC3)c2c1` [LFA1021, N-[7-morpholino-5-[4-[[5-(trifluoromethyl)-2-pyridyl]amino]cyclohexoxy]-1,6-naphthyridin-3-yl]methanesulfonamide] cannot be ordered by IC50: less than 100 nM for the first, less than 100 nM for the second.

`CS(=O)(=O)Nc1cnc2cc(N3CCOCC3)nc(O[C@H]3CC[C@@H](Nc4cnc(C#N)cn4)CC3)c2c1` [LFA1036, N-[5-[4-[(5-cyanopyrazin-2-yl)amino]cyclohexoxy]-7-morpholino-1,6-naphthyridin-3-yl]methanesulfonamide] and `Oc1cnc2cc(N3CCOCC3)nc(O[C@H]3CC[C@@H](c4cnccn4)CC3)c2c1` [LFA1065, 7-morpholino-5-(4-pyrazin-2-ylcyclohexoxy)-1,6-naphthyridin-3-ol] cannot be ordered by IC50: less than 100 nM for the first, less than 100 nM for the second.

Compared with `CS(=O)(=O)Nc1cnc2cc(N3CCOCC3)nc(O[C@H]3CC[C@@H](Nc4nccnc4C#N)CC3)c2c1` [LFA1032, N-[5-[4-[(3-cyanopyrazin-2-yl)amino]cyclohexoxy]-7-morpholino-1,6-naphthyridin-3-yl]methanesulfonamide], `Cc1cnc(N[C@H]2CC[C@@H](Oc3nc(N4CCOCC4)cc4ncc(O)cc34)CC2)c(C)c1` [LFA1052, 5-[4-[(3,5-dimethyl-2-pyridyl)amino]cyclohexoxy]-7-morpholino-1,6-naphthyridin-3-ol] is higher in IC50: less than 100 nM for the first, 1000 to 10000 nM for the second.

`COc1ccc(C)nc1N[C@H]1CC[C@@H](Oc2nc(N3CCOCC3)cc3ncc(NS(C)(=O)=O)cc23)CC1` [LFA1010, N-[5-[4-[(3-methoxy-6-methyl-2-pyridyl)amino]cyclohexoxy]-7-morpholino-1,6-naphthyridin-3-yl]methanesulfonamide] and “N-[5-[4-[(4,6-dimethylpyrimidin-2-yl)amino]cyclohexoxy]-7-morpholino-1,6-naphthyridin-3-yl]methanesulfonamide;2,2,2-trifluoroacetic acid [LFA1046]” fall in the same range of IC50: 100 to 1000 nM for the first, 100 to 1000 nM for the second.

`CNC(=O)c1ccnc(N[C@H]2CC[C@@H](Oc3nc(N4CCOCC4)cc4ncc(NS(C)(=O)=O)cc34)CC2)n1` and `Cc1cc(C)nc(N[C@H]2CC[C@@H](Oc3nc(N4CCOCC4)cc4ncc(O)cc34)CC2)n1` [LFA1057, 5-[4-[(4,6-dimethylpyrimidin-2-yl)amino]cyclohexoxy]-7-morpholino-1,6-naphthyridin-3-ol] cannot be ordered by IC50: less than 100 nM for the first, less than 100 nM for the second.

`CS(=O)(=O)Nc1cnc2cc(N3CCOCC3)nc(O[C@H]3CC[C@@H](Nc4nccnc4C(F)(F)F)CC3)c2c1` [LFA1029, N-[7-morpholino-5-[4-[[3-(trifluoromethyl)pyrazin-2-yl]amino]cyclohexoxy]-1,6-naphthyridin-3-yl]methanesulfonamide] and `CS(=O)(=O)Nc1cnc2cc(N3CCOCC3)nc(O[C@H]3CC[C@@H](Nc4ccc(F)cn4)CC3)c2c1` [LFA1004, N-[5-[4-[(5-fluoro-2-pyridyl)amino]cyclohexoxy]-7-morpholino-1,6-naphthyridin-3-yl]methanesulfonamide] cannot be ordered by IC50: less than 100 nM for the first, less than 100 nM for the second.

Compared with `Cc1cccc(N[C@H]2CC[C@@H](Oc3nc(N4CCOCC4)cc4ncc(NS(C)(=O)=O)cc34)CC2)n1` [LFA1006, N-[5-[4-[(6-methyl-2-pyridyl)amino]cyclohexoxy]-7-morpholino-1,6-naphthyridin-3-yl]methanesulfonamide], `CS(=O)(=O)Nc1cnc2cc(N3CCOCC3)nc(O[C@H]3CC[C@@H](Nc4ccnc(C(F)(F)F)n4)CC3)c2c1` [LFA1035, N-[7-morpholino-5-[4-[[2-(trifluoromethyl)pyrimidin-4-yl]amino]cyclohexoxy]-1,6-naphthyridin-3-yl]methanesulfonamide] is higher in IC50: less than 100 nM for the first, 100 to 1000 nM for the second. The first is the more potent here.

First: Cc1nc(N[C@H]2CC[C@@H](Oc3nc(N4CCOCC4)cc4ncc(NS(C)(=O)=O)cc34)CC2)ncc1F [LFA1039, N-[5-[4-[(5-fluoro-4-methyl-pyrimidin-2-yl)amino]cyclohexoxy]-7-morpholino-1,6-naphthyridin-3-yl]methanesulfonamide;2,2,2-trifluoroacetic acid]
Second: CS(=O)(=O)Nc1cnc2cc(N3CCOCC3)nc(O[C@H]3CC[C@@H](Nc4cncc(C(F)(F)F)n4)CC3)c2c1 [LFA1030, N-[7-morpholino-5-[4-[[6-(trifluoromethyl)pyrazin-2-yl]amino]cyclohexoxy]-1,6-naphthyridin-3-yl]methanesulfonamide]
The IC50 of the first is lower: less than 100 nM for the first, 100 to 1000 nM for the second. The first is the more potent here.

Compared with `COc1cnc(N[C@H]2CC[C@@H](Oc3nc(N4CCOCC4)cc4ncc(NS(C)(=O)=O)cc34)CC2)cn1` [LFA1028, N-[5-[4-[(5-methoxypyrazin-2-yl)amino]cyclohexoxy]-7-morpholino-1,6-naphthyridin-3-yl]methanesulfonamide], `CS(=O)(=O)Nc1cnc2cc(N3CCOCC3)nc(O[C@H]3CC[C@@H](c4cnccn4)CC3)c2c1` [LFA1064, N-[7-morpholino-5-(4-pyrazin-2-ylcyclohexoxy)-1,6-naphthyridin-3-yl]methanesulfonamide] is higher in IC50: less than 100 nM for the first, 100 to 1000 nM for the second. The first is the more potent here.

First: N#Cc1cnc(N[C@H]2CC[C@@H](Oc3nc(N4CCOCC4)cc4ncc(O)cc34)CC2)cn1 [LFA1026, 5-[[4-[(3-hydroxy-7-morpholino-1,6-naphthyridin-5-yl)oxy]cyclohexyl]amino]pyrazine-2-carbonitrile]
Second: CN(C)Cc1cnc(N[C@H]2CC[C@@H](Oc3nc(N4CCOCC4)cc4ncc(O)cc34)CC2)nc1 [LFA1060, 5-[4-[[5-[(dimethylamino)methyl]pyrimidin-2-yl]amino]cyclohexoxy]-7-morpholino-1,6-naphthyridin-3-ol]
The IC50 of the first is higher: 100 to 1000 nM for the first, less than 100 nM for the second. The second is the more potent here.

`CS(=O)(=O)Nc1cnc2cc(N3CCOCC3)nc(O[C@H]3CC[C@@H](Nc4ncccc4F)CC3)c2c1` [LFA1007, N-[5-[4-[(3-fluoro-2-pyridyl)amino]cyclohexoxy]-7-morpholino-1,6-naphthyridin-3-yl]methanesulfonamide] and `CS(=O)(=O)Nc1cnc2cc(N3CCOCC3)nc(O[C@H]3CC[C@@H](Nc4cnccn4)CC3)c2c1` [LFA1045, N-[7-morpholino-5-[4-(pyrazin-2-ylamino)cyclohexoxy]-1,6-naphthyridin-3-yl]methanesulfonamide;2,2,2-trifluoroacetic acid] cannot be ordered by IC50: less than 100 nM for the first, less than 100 nM for the second.

`CS(=O)(=O)Nc1cnc2cc(N3CCOCC3)nc(O[C@H]3CC[C@@H](Nc4ccncc4Br)CC3)c2c1` [LFA1014, N-[5-[4-[(3-bromo-4-pyridyl)amino]cyclohexoxy]-7-morpholino-1,6-naphthyridin-3-yl]methanesulfonamide] and `CS(=O)(=O)Nc1cnc2cc(N3CCOCC3)nc(O[C@H]3CC[C@@H](Nc4ccccn4)CC3)c2c1` [LFA1034, N-[7-morpholino-5-[4-(2-pyridylamino)cyclohexoxy]-1,6-naphthyridin-3-yl]methanesulfonamide] cannot be ordered by IC50: less than 100 nM for the first, less than 100 nM for the second.

First: CS(=O)(=O)Nc1cnc2cc(N3CCOCC3)nc(O[C@H]3CC[C@@H](Nc4ncc(F)cc4F)CC3)c2c1 [LFA1024, N-[5-[4-[(3,5-difluoro-2-pyridyl)amino]cyclohexoxy]-7-morpholino-1,6-naphthyridin-3-yl]methanesulfonamide]
Second: Cn1cc([C@H]2CC[C@@H](Oc3nc(N4CCOCC4)cc4ncc(NS(C)(=O)=O)cc34)CC2)cn1 [LFA1062, N-[5-[4-(1-methylpyrazol-4-yl)cyclohexoxy]-7-morpholino-1,6-naphthyridin-3-yl]methanesulfonamide]
The IC50 of the first is lower: less than 100 nM for the first, 100 to 1000 nM for the second. The first is the more potent here.

Compared with `Cc1cc(C#N)nc(N[C@H]2CC[C@@H](Oc3nc(N4CCOCC4)cc4ncc(O)cc34)CC2)n1` [LFA1059, 2-[[4-[(3-hydroxy-7-morpholino-1,6-naphthyridin-5-yl)oxy]cyclohexyl]amino]-6-methyl-pyrimidine-4-carbonitrile], `CS(=O)(=O)Nc1cnc2cc(N3CCOCC3)nc(O[C@H]3CC[C@@H](Nc4cccnn4)CC3)c2c1` [LFA1020, N-[7-morpholino-5-[4-(pyridazin-3-ylamino)cyclohexoxy]-1,6-naphthyridin-3-yl]methanesulfonamide] is lower in IC50: 100 to 1000 nM for the first, less than 100 nM for the second. The second is the more potent here.

Compared with `Cn1cc([C@H]2CC[C@H](Oc3nc(N4CCOCC4)cc4ncc(NS(C)(=O)=O)cc34)CC2)cn1` [LFA1063, N-[5-[4-(1-methylpyrazol-4-yl)cyclohexoxy]-7-morpholino-1,6-naphthyridin-3-yl]methanesulfonamide], `Cc1ccc(N[C@H]2CC[C@@H](Oc3nc(N4CCOCC4)cc4ncc(O)cc34)CC2)cn1` [LFA1053, 5-[4-[(6-methyl-3-pyridyl)amino]cyclohexoxy]-7-morpholino-1,6-naphthyridin-3-ol] is lower in IC50: 10000 to 30000 nM for the first, 100 to 1000 nM for the second.

`Cc1cc(C#N)nc(N[C@H]2CC[C@@H](Oc3nc(N4CCOCC4)cc4ncc(NS(C)(=O)=O)cc34)CC2)n1` [LFA1043, N-[5-[4-[(4-cyano-6-methyl-pyrimidin-2-yl)amino]cyclohexoxy]-7-morpholino-1,6-naphthyridin-3-yl]methanesulfonamide;2,2,2-trifluoroacetic acid] gave an IC50 of less than 100 nM.

From patent publication US20240246960A1 (adMare Therapeutics Society, priority 2021, published 2024)
